Laboratory results published in patent US20190224166A1, “Compositions and Methods for Treating Muscle Loss” (Augusta University Research Institute, Inc., priority 2018, published 2019).
Entries after “also recorded” stand apart in the source; their conditions may differ.

Columns and labels:
[1] = system: C2C12 myoblasts; assay: ROS by Amplex red assay in C2C12 myoblasts treated with kynurenine; assay type: cell-based
Method: (§1) This example investigated the relationship between kynurenine, a circulating tryptophan metabolite which increases with age, and markers of muscle oxidative stress. C2C12 myoblasts were treated with kynurenine in a dose-dependent manner (0, 1, 10 μM) and reactive oxygen species (“ROS”) was measured using an Amplex red assay. Human myoblasts were also treated with kynurenine (100 μM) and ROS was measured. Female C57BL/6 mice 6 months of age were treated with kynurenine (10 mg/kg BW) or with saline (vehicle control) for 4 weeks. Muscle mass and fiber size were measured from the quadriceps femoris ex vivo, and ROS was measured from paraffin-embedded muscle sections using immunostaining for 4HNE.

[2] = system: human myoblasts; assay: ROS in human myoblasts treated with kynurenine; assay type: cell-based
Method: as §1

[3] = system: quadriceps femoris; assay: Muscle mass and fiber size of quadriceps femoris ex vivo, mice treated with kynurenine for 4 weeks; assay type: in vivo, C57BL/6 mice; conditions: young mice, kynurenine 10 mg/kg BW
Method: as §1

[4] = system: quadriceps femoris; assay: Muscle ROS by 4HNE immunostaining of paraffin-embedded muscle sections, mice treated with kynurenine; assay type: in vivo, C57BL/6 mice; conditions: young mice, kynurenine 10 mg/kg BW, 4 weeks, P<0.05
Method: as §1

[5] = system: tibialis anterior; assay: Muscle ROS by Amplex red assay in aged mice treated with 1-methyl-D-tryptophan; assay type: in vivo
Method: (§2) Female mice 22 months of age were obtained from the National Institute on Aging and treated with saline (vehicle) or 1-methyl-D-tryptophan (1-MT, Sigma, 452483, lot#MKBZ1441V) at a low dose (10 mg/kg BW) or at a high dose (100 mg/kg BW). Mice were treated daily for 4 weeks. Treatments were administered i.p. with an injection volume of 0.2 ml following IACUC approved procedures. Mice were euthanized by CO2 overdose and muscles harvested for analysis. One quadriceps muscle was snap frozen for proteomics and the other quadriceps muscle fixed in buffered formalin for paraffin embedding and trichrome staining. The tibialis anterior was placed in PBS for amplex red assay.

[6] = system: quadriceps muscle; assay: Proteomic analysis of quadriceps muscle of aged mice treated with 1-methyl-D-tryptophan (Table 1, TOPPGENE enrichment); assay type: in vivo
Method: as §2
The IDO inhibitor, 1-methyl-D-tryptophan, blocks kynurenine production and reduces levels of ROS in muscle.

[7] = aged mice, 1-methyl-D-tryptophan treatment
[8] = aged mouse muscle after 1-methyl-D-tryptophan treatment

## Nc1ccccc1C(=O)CC(N)C(=O)O (stereo not shown) [kynurenine]
[1]; 1 μm and 10 μm kynurenine, FIG. 1A
  reactive oxygen species (H2O2 concentration/protein concentration): increases
[1]; kynurenine at both low and high concentrations (1, 10 μM), P<0.01
  ROS increase: 2 fold
[2]; 100 μM kynurenine
  ROS: increased
[2]; 10 μm kynurenine, FIG. 1B
  reactive oxygen species: increases
[3]
  quadriceps weight relative to body weight, reduction compared to controls: 10%
[3]; P<0.01
  muscle fiber size compared to controls: significantly lower
[4]
  ROS increase based on 4HNE staining, compared to control: 20%

## Cn1cc(C[C@@H](N)C(=O)O)c2ccccc21 [1-methyl-D-tryptophan, reference compound]
[5]; 1-methyl-D-tryptophan i.p. daily for 4 weeks
  levels of ROS in muscle (Amplex red assay): decrease
[5]; 1-methyl-D-tryptophan treatment
  kynurenine production: blocks
[6]; [7]
  factors associated with muscle oxidative stress (proteomic analysis): reduced; also recorded: decreases
  levels of myosin 4 (proteomic analysis): increases
[6]; [8]
  factors associated with muscle degradation (ubiquitin ligases) and oxidative stress (TOPPGENE enrichment of downregulated proteins): decreased levels
  factors associated with muscle protein synthesis (TOPPGENE enrichment of upregulated proteins): increased levels
